Assays:
Assay in all cases: radiometric filter-binding kinase assay, Kinase HotSpot
Details in all cases: compound 0.5 µM; ATP 10 µM
[1] = target: GSK3A (human) (UniProt P49840)
[2] = target: FLT3 (human) (UniProt P36888)
[3] = target: MAP3K2 (human) (UniProt Q9Y2U5)
[4] = target: IGF1R (human) (UniProt P08069)
[5] = target: NTRK2 (human) (UniProt Q16620)
[6] = target: MAP4K2 (human) (UniProt Q12851)
[7] = target: CSNK1G2 (human) (UniProt P78368)
[8] = target: NUAK1 (human) (UniProt O60285)
[9] = target: SRMS (human) (UniProt Q9H3Y6)
[10] = target: MELK (human) (UniProt Q14680)
[11] = target: FRK (human) (UniProt P42685)
[12] = target: TBK1 (human) (UniProt Q9UHD2)
Chain of TBK1 (human) (Q9UHD2 whole entry, looked up): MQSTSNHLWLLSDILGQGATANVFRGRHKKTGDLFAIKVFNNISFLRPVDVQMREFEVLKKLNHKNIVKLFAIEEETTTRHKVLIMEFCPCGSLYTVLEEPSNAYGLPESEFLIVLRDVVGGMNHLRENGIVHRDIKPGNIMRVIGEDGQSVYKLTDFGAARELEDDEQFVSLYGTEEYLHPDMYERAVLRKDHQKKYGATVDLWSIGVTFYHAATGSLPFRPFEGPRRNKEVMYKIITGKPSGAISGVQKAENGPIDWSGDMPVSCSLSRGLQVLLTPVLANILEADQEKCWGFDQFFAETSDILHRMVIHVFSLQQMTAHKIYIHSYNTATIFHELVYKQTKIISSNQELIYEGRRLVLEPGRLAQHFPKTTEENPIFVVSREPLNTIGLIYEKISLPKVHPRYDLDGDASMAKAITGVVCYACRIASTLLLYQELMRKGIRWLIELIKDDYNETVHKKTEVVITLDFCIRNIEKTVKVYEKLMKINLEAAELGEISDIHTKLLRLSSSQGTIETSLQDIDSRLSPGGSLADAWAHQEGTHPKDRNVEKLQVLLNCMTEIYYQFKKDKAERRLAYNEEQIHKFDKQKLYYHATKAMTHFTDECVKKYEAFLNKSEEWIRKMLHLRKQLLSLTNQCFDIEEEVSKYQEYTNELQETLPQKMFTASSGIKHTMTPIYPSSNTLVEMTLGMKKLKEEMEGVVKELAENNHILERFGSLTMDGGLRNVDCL

[13] = target: CHEK2 (human) (UniProt O96017)
[14] = target: CAMK2G (human) (UniProt Q13555)
[15] = target: MAPKAPK3 (human) (UniProt Q16644)
[16] = target: SYK (human) (UniProt P43405)
[17] = target: MAP3K5 (human) (UniProt Q99683)
[18] = target: JAK1 JH1 catalytic (human) (UniProt P23458)
[19] = target: MAP3K7 TAB1 (human) (UniProt O43318+Q15750)
Chain of MAP3K7 TAB1 (human) (O43318 whole entry, looked up): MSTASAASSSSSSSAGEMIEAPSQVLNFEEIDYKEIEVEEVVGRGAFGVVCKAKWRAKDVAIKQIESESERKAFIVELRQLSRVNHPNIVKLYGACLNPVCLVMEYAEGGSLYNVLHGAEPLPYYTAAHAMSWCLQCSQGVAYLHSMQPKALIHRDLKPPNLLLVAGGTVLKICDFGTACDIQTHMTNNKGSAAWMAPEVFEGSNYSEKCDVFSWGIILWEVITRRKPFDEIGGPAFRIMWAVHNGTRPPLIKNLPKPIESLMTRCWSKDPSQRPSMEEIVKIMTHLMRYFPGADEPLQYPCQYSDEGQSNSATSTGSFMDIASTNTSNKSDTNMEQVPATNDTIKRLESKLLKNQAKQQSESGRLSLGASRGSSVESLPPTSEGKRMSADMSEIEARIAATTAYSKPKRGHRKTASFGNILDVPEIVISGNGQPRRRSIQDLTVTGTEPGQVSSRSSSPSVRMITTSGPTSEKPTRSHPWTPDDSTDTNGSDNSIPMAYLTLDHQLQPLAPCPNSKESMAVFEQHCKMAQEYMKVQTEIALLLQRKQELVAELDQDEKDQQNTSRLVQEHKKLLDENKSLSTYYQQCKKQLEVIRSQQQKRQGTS
Chain of MAP3K7 TAB1 (human) (Q15750 whole entry, looked up): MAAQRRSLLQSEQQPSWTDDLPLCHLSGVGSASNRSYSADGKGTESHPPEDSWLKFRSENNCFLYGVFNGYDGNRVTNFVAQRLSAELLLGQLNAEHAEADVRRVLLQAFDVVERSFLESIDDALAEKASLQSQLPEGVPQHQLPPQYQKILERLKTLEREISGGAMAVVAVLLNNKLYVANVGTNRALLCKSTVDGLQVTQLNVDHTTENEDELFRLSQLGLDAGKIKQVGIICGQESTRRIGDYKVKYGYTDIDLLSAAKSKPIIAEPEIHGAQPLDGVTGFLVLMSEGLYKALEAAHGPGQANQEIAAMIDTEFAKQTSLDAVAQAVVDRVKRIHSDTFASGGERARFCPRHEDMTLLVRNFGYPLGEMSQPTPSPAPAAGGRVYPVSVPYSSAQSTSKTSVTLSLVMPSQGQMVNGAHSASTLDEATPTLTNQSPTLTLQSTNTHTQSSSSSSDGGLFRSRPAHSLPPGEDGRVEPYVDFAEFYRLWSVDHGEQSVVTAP

[20] = target: IKBKB (human) (UniProt O14920)
[21] = target: TSSK1B (human) (UniProt Q9BXA7)
[22] = target: HIPK3 (human) (UniProt Q9H422)
[23] = target: CHEK1 (human) (UniProt O14757)
[24] = target: PNCK (human) (UniProt Q6P2M8)
[25] = target: RIPK2 (human) (UniProt O43353)
Chain of RIPK2 (human) (O43353 whole entry, looked up): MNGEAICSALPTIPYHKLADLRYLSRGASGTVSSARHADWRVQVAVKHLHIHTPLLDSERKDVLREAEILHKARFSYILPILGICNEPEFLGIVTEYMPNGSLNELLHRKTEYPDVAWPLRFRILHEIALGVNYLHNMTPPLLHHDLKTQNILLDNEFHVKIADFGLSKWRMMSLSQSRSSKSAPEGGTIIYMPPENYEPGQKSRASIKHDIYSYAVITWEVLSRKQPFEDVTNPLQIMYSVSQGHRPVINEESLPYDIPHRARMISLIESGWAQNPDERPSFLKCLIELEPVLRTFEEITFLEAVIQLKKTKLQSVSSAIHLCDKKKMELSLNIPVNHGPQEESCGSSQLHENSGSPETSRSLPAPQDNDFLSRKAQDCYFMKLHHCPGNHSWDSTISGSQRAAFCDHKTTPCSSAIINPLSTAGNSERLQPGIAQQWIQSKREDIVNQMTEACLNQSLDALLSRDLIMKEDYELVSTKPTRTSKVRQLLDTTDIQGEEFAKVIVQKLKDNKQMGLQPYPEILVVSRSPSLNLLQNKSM

[26] = target: EPHB4 (human) (UniProt P54760)
[27] = target: SLK (human) (UniProt Q9H2G2)
[28] = target: CLK3 (human) (UniProt P49761)
[29] = target: SGK2 (human) (UniProt Q9HBY8)
[30] = target: VRK1 (human) (UniProt Q99986)
[31] = target: CAMK1G (human) (UniProt Q96NX5)
[32] = target: TGFBR2 (human) (UniProt P37173)
Chain of TGFBR2 (human) (P37173 whole entry, looked up): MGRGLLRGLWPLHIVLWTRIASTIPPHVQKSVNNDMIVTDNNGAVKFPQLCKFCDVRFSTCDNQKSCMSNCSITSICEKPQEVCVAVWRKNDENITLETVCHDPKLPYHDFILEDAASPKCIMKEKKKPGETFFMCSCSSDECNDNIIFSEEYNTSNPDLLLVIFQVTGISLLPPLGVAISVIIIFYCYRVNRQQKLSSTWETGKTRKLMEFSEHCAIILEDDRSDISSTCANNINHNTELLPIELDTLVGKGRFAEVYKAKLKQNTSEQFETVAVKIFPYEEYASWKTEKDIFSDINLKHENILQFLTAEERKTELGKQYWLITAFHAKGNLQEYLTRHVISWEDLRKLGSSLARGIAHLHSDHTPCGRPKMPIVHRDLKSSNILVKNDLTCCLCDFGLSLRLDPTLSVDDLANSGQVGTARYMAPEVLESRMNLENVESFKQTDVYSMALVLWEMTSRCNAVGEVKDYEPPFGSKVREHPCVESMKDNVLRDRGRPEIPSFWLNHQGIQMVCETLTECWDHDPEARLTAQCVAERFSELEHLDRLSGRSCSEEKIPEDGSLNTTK

[33] = target: PRKCZ (human) (UniProt Q05513)
[34] = target: NEK11 (human) (UniProt Q8NG66)
[35] = target: PAK3 (human) (UniProt O75914)
[36] = target: STK16 (human) (UniProt O75716)
Chain of STK16 (human) (O75716 whole entry, looked up): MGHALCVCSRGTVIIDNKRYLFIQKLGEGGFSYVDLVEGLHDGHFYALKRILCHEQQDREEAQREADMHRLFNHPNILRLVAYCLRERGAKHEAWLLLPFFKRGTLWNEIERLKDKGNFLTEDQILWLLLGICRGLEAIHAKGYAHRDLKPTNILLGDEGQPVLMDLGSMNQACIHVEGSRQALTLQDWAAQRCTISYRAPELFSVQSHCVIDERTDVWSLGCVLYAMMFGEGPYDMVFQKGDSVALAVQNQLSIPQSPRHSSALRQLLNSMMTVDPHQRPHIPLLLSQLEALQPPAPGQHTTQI

[37] = target: MAPK10 (human) (UniProt P53779)
[38] = target: TAOK1 (human) (UniProt Q7L7X3)
[39] = target: DAPK2 (human) (UniProt Q9UIK4)
[40] = target: AXL (human) (UniProt P30530)
[41] = target: AURKB (human) (UniProt Q96GD4)
[42] = target: SIK2 (human) (UniProt Q9H0K1)

Chain of MAP4K2 (human) (Q12851 whole entry, looked up): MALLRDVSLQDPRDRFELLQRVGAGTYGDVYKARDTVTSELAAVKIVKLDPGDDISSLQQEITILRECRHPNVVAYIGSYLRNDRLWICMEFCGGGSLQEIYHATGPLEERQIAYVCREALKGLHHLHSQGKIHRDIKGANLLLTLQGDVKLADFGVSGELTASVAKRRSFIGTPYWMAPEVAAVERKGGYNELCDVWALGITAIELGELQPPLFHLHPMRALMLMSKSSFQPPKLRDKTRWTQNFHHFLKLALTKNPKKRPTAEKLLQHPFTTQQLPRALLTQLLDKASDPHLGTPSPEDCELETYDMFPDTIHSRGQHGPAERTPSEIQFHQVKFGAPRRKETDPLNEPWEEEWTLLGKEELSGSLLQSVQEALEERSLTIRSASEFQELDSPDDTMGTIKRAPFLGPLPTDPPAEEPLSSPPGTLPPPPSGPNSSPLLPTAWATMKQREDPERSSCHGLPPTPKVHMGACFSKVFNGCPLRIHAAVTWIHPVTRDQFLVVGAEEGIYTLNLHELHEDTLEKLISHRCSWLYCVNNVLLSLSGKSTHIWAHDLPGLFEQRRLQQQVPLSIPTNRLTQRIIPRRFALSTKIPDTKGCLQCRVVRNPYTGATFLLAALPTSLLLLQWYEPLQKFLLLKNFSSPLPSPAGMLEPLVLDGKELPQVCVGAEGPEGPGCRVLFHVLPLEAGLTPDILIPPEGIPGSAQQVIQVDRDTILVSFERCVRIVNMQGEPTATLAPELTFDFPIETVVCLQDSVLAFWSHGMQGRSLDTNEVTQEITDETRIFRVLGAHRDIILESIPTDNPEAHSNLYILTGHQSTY
Chain of NUAK1 (human) (O60285 whole entry, looked up): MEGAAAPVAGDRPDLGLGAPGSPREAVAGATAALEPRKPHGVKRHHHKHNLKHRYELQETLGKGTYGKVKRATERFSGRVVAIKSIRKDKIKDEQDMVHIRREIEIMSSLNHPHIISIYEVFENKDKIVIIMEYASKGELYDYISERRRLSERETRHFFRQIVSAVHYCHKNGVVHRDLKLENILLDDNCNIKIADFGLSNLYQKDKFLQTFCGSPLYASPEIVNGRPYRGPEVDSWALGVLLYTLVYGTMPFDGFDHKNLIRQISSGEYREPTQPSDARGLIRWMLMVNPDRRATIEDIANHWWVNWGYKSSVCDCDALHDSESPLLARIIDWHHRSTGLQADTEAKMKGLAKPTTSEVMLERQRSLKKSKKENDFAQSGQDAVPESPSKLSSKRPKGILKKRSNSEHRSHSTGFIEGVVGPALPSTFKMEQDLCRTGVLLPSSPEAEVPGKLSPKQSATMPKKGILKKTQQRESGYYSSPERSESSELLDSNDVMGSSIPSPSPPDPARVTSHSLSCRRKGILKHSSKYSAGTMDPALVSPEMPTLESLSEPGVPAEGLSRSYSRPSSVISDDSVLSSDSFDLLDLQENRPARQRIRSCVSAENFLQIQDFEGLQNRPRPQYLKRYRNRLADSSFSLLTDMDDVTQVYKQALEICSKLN

Compound `Nc1nnc2[nH]c3ccccc3nc1-2` has a residual activity [1] of 91.6%, a residual activity [2] of 75.9% and a residual activity [3] of 92.6%. For the same compound, the residual activity [4] was 97.5%, the residual activity [5] was 96.4% and the residual activity [6] was 91.7%. The residual activity [7] was 93.8%, the residual activity [8] was 86.3% and the residual activity [9] was 88.5%. It also gave a residual activity [10] of 92.9%, a residual activity [11] of 96.8% and a residual activity [12] of 92%. It also gave a residual activity [13] of 94.4%, a residual activity [14] of 108% and a residual activity [15] of 101%. The residual activity [16] was 100%, the residual activity [17] was 103% and the residual activity [18] was 99.8%. For the same compound, the residual activity [19] was 100%, the residual activity [20] was 102% and the residual activity [21] was 95.4%. The residual activity [22] was 97.4%, the residual activity [23] was 187% and the residual activity [24] was 102%. It also gave a residual activity [25] of 81.1%, a residual activity [26] of 84.9% and a residual activity [27] of 92.5%. It also gave a residual activity [28] of 94.3%, a residual activity [29] of 90.3% and a residual activity [30] of 103%. For the same compound, the residual activity [31] was 97.9%, the residual activity [32] was 82.4% and the residual activity [33] was 106%. The residual activity [34] was 110%, the residual activity [35] was 98.3% and the residual activity [36] was 91.9%. For the same compound, the residual activity [37] was 92.1%, the residual activity [38] was 101% and the residual activity [39] was 91%. The residual activity [40] was 91.3%, the residual activity [41] was 101% and the residual activity [42] was 102%.

Compound `CCN(CC)CCCCN1c2ccccc2Oc2ccc(Cl)cc21` has a residual activity [1] of 108%, a residual activity [2] of 99% and a residual activity [3] of 88.2%. For the same compound, the residual activity [4] was 89.4%, the residual activity [5] was 102% and the residual activity [6] was 110%. It also gave a residual activity [7] of 103%, a residual activity [8] of 90.7% and a residual activity [9] of 105%. The residual activity [10] was 95.3%, the residual activity [11] was 98.4% and the residual activity [12] was 86.3%. For the same compound, the residual activity [13] was 105%, the residual activity [14] was 104% and the residual activity [15] was 105%. The residual activity [16] was 97.6%, the residual activity [17] was 106% and the residual activity [18] was 105%. The residual activity [19] was 102%, the residual activity [20] was 96.6% and the residual activity [21] was 96.7%. The residual activity [22] was 94.2%, the residual activity [23] was 101% and the residual activity [24] was 107%. It also gave a residual activity [25] of 89.7%, a residual activity [26] of 97.9% and a residual activity [27] of 105%. For the same compound, the residual activity [28] was 104%, the residual activity [29] was 105% and the residual activity [30] was 101%. For the same compound, the residual activity [31] was 99.2%, the residual activity [32] was 96% and the residual activity [33] was 105%. It also gave a residual activity [34] of 92%, a residual activity [35] of 116% and a residual activity [36] of 95.2%. The residual activity [37] was 104%, the residual activity [38] was 97.9% and the residual activity [39] was 99%. For the same compound, the residual activity [40] was 95.2%, the residual activity [41] was 94.1% and the residual activity [42] was 111%.

In the case of `COc1cc2ncnc(N3CCN(C(=O)Nc4ccc(Oc5ccccc5)cc4)CC3)c2cc1OC`, the residual activity [1] is reported as 95.8%, the residual activity [2] is reported as 43.2% and the residual activity [3] is reported as 81.2%. It also gave a residual activity [4] of 103%, a residual activity [5] of 121% and a residual activity [6] of 94.7%. The residual activity [7] was 94.6%, the residual activity [8] was 88.8% and the residual activity [9] was 93.6%. The residual activity [10] was 94.9%, the residual activity [11] was 90.2% and the residual activity [12] was 96.3%. For the same compound, the residual activity [13] was 102%, the residual activity [14] was 100% and the residual activity [15] was 94.6%. It also gave a residual activity [16] of 93.2%, a residual activity [17] of 102% and a residual activity [18] of 96.5%. It also gave a residual activity [19] of 98.3%, a residual activity [20] of 102% and a residual activity [21] of 65.2%. The residual activity [22] was 87.4%, the residual activity [23] was 99.4% and the residual activity [24] was 94.3%. The residual activity [25] was 93.7%, the residual activity [26] was 99.3% and the residual activity [27] was 97.9%. The residual activity [28] was 88.9%, the residual activity [29] was 96.7% and the residual activity [30] was 77.4%. The residual activity [31] was 100%, the residual activity [32] was 102% and the residual activity [33] was 96%. For the same compound, the residual activity [34] was 107%, the residual activity [35] was 98.1% and the residual activity [36] was 94.2%. For the same compound, the residual activity [37] was 98.2%, the residual activity [38] was 81.6% and the residual activity [39] was 95%. For the same compound, the residual activity [40] was 91.7%, the residual activity [41] was 76.1% and the residual activity [42] was 96%.

Reference: the kinase profiling compilation of Christmann-Franck et al. (2016)
